Experiment [1] deals with BTK in mouse bone marrow (Mus musculus (Mouse), UniProt P35991). Kind of experiment: Mouse Bone Marrow Assay (MSD ELISA of BTK degradation in bone marrow). It is filed as in vivo. Particulars: female C57BL/6J mice, single dose of Dose A, bone marrow collected after 24 hours. On the procedure:
Female C57BL/6J mice (Jackson Laboratories) were used for this study. Compounds or vehicle/control were prepped with EtOH; PEG-400; Phosal 53 MCT (10:30:60, v/v). Four mice were tested per compound or vehicle/control. On Day 1, mice were administered a single dose of Dose A. On Day 2 (after 24 hours), tissue (bone marrow) was collected from one hind leg per mouse.
An MSD (Meso Scale Discovery) ELISA (enzyme-linked immunosorbent assay) based assay was used to determine BTK degradation in mouse bone marrow. The following materials and equipment were used: 10% NP40 solution (nonionic polyoxyethylene surfactant, ThermoFisher, cat no. 28324); protease inhibitor mini tablet (Roche, cat no. 05 892 970 001); PhosphoSTOP™ tablet (Roche, cat no. 04 906 837 001); Pierce™ BCA Protein Assay Kit (Thermofisher, Cat No. 23225); Precellys® 2 mL lysing tube with 2.8 mm beads (VWR, cat no. 10032-756); Bertin Precellys® 24/Cryolys® cooling system; 96-well MSD streptavidin pre-coated plates (MSD, cat no. L15SA-1); MSD Blocker A (MSD, cat no. R93BA-4); capture antibody, biotinylated BTK mAb (BD Biosciences, cat no. 624008; custom order); primary detection antibody, BTK RpAb (rabbit polyclonal antibody, CST, cat no. 8547S, D3H5 clone); secondary detection antibody, anti-Rabbit-Sulfo-Tag (MSD, cat no. R32AB-1); read Buffer, 4× (MSD, cat no. R92TC-1); recombinant BTK protein (Thermofisher, cat no. PR5442A); MSD Tris Wash Buffer (10×) (MSD, cat no. R61TX-1); PBS (phosphate-buffered saline); deionized water (diH2O); Lysis Buffer [0.2% NP40 in PBS+Protease Inhibitor tablet (1 tablet/10 mL)+PhosphoSTOP tablet (1 tablet/10 mL)]; 3% MSD Blocker A [MSD Blocker A+450 mL diH2O+50 mL]; and 10×MSD Tris Wash Buffer.
Lysis buffer [(PBS+0.2% NP40+PI (protease inhibitor)+PhosphoSTOP)] was prepared and put on ice until it was fully cold. Ice cold lysis buffer […] was added to each Precellys® tube containing beads and bone marrow sample. Sample tubes were transferred into Precellys® machine and homogenized using 5000 rpm—2×20 seconds. The sample lysates were centrifuged at 14,000 rpm for 20 minutes at 4° C. after homogenizing.
The protein concentration was determined using Pierce™ BCA Protein Assay Kit following manufacturer's recommended protocol. The protein normalized working solution was prepared, using 30 μg protein per sample lysate for assay.
A 300 ng/ml working stock solution of recombinant BTK protein in lysis buffer was prepared, and the sample was serially diluted at 3-fold dilution (10-point assay, highest concentration was 300 ng/mL and lowest concentration was 0.015 ng/mL)
MSD plate coating: Coating antibody (biotinylated-BTK mAb) stock solution was prepared at 1 μg/mL in PBS buffer. 50 μL/well capture antibody (Biotinylated BTK mAb) solution was added, and the plates were shaken gently at ambient temperature for two hours. The plates were washed 3 times with 1×MSD Tris Wash Buffer in a plate washer (300 μL/well), and the plates were blocked with 3% MSD Blocker A (150 μL/well). The plates were incubated for an additional 1-2 hours at ambient temperature with gentle shaking. The plates were washed 3 times with 1×MSD wash buffer using plate washer. Bone marrow lysates (30 μg) at a final volume of 50 μL/well were added into the plates. The serially diluted standard samples were added to the same plates at a final volume of 50 μL/well. The plates were incubated overnight at 4° C. with gentle shaking.
The plates were washed three times with 1×MSD wash buffer (prepared from 10× concentration buffer) using plate washer. Primary detection antibody at 50 μL/well was added (BTK RpAb; 1:1000 dilution in 1% MSD Blocker A). The plates were incubated for two hours at ambient temperature with gentle shaking. The plates were washed three times with 1×MSD wash buffer using plate washer. Anti-Rabbit-SULFO-TAG secondary antibodies (50 μl/well) were added, 1:500 diluted in 1% MSD Blocker A, and the plates were incubated for one to two hours at ambient temperature. […]

Experiment [2] addresses BTK protein in human whole blood (Homo sapiens (Human), UniProt Q06187). The experiment in a line: Btk protein in human whole blood MSD ELISA based assay (BTK degradation). Type of experiment: cell-based. Particulars: 6 hours, maximum BTK degradation compared to DMSO only treated samples, read-out: hWB BTK dMax (%). The protocol:
Btk protein degradation was tested using an Meso Scale Discovery-ELISA system (MSD-ELISA): (1) Test compounds were added to human whole blood; (2) human whole blood cells treated with test compounds were lysed; (3) lysed cells were treated with capture antibody, an antibody to Btk; (4) lysed cells were treated with […] to Btk; and (5) lysed cells were treated with anti-mouse antibody (tagged).
Specifically, about 80 μl of fresh human whole blood from healthy donors was transferred into each well of a 96-well V-bottom plate (Costar, Cat No. 3894). Using a TECAN™ D300e Digital Dispenser (Tecan)), 1:4 serially diluted compounds [(8 pt assay) in DMSO solution (final 0.2%) starting at 3 μM top concentration], were added in duplicate. Thereafter, plates were placed in a 37° C. incubator and incubated for 6 hours.
At the end of incubation, 80 μl of 2×CST lysis buffer (Cell Signaling Technology, Cat No. 9803), prepared from a 10× stock solution, was added per well to lyse the blood. Plates were then sealed with a plate sealer and the samples were frozen overnight at −80° C.
Total amount of BTK protein remaining in the blood samples after compound treatment was measured using MSD-ELISA. After thawing the frozen plates, blood lysates were mixed thoroughly and transferred to small spot high-bind MSD plates (Meso Scale Discovery, Cat No. L45XB-3) and coated with capturing antibody, rabbit anti-human BTK (D3H5) (Cell Signaling Technology, Cat No. 8547CF). Thereafter, primary detection antibody, mouse anti-human BTK monoclonal antibody, (BD Biosciences, Cat No. 611117) and secondary detection antibody, anti-mouse SULFO-TAG (Meso Scale Discovery, Cat No. R32AC-1) were added. The assay plates were read on an MSD S600 plate reader by the addition of 2×MSD read buffer (Meso Scale Discovery, R92TC-1). All reagent transfers, including blood lysis, was conducted using a Biomed i7 liquid handler. From the dose response curves, DC50 values were calculated by averaging data from duplicate experiments. and Curve fitting was done by non-linear regression using GraphPad Prism. The DC50 values are reported in Table 2 in the hWB BTK DC50 (nM) column The Dmax values represent the maximum amount of BTK degradation observed upon compound treatment compared to DMSO only treated samples. The dMax (%) values are reported in Table 2 in the hWB BTK dMax (%) column.
(In an ELISA, binding on a coated surface is turned into a signal by an enzyme label.)

Chain of BTK protein in human whole blood (Q06187 whole entry): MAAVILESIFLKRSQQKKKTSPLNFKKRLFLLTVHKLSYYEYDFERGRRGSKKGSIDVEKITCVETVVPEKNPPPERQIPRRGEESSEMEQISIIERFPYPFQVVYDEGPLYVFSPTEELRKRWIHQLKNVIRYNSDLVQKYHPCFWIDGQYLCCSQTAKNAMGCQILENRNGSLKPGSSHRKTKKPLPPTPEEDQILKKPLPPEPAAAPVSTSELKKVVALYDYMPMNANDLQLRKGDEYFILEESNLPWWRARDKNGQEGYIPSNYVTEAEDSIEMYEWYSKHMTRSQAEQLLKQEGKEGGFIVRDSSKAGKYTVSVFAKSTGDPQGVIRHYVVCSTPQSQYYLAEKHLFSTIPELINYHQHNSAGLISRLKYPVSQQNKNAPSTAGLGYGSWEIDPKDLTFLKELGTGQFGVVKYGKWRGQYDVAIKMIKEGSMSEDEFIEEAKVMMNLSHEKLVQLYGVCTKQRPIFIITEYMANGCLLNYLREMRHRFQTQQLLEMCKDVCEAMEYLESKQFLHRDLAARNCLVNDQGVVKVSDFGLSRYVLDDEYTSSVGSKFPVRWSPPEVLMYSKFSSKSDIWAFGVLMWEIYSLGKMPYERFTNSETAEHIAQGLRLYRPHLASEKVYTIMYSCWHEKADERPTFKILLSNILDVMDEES
Chain of BTK in mouse bone marrow (P35991 whole entry): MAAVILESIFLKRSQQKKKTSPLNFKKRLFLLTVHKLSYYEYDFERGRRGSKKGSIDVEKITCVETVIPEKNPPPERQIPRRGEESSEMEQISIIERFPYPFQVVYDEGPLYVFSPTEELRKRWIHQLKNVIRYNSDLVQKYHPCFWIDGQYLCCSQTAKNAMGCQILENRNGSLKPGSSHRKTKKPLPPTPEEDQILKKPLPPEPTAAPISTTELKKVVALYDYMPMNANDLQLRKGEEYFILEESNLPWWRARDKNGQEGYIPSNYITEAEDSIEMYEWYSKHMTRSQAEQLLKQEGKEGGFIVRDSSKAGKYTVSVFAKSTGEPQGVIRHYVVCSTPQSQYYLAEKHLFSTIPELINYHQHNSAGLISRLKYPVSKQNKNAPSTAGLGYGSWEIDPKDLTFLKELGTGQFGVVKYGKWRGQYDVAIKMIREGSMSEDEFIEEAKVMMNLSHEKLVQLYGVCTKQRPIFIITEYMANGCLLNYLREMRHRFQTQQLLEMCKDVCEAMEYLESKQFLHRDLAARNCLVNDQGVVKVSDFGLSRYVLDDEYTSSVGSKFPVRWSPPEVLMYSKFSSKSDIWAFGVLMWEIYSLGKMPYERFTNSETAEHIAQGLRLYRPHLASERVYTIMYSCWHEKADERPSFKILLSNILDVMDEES

What is called Dmax is the largest share of the target that was removed. For `Cc1cc(-c2cc(Nc3ccc(N4CCN(CCc5ccc(N6CCC(=O)NC6=O)cc5)CC4)cn3)ncn2)c(F)cc1[C@@H](C)NC(=O)c1nc(C(C)(C)C)no1` [Example 12, 3-tert-butyl-N-{(1R)-1-[4-(6-{[5-(4-{2-[4-(2,4-dioxo-1,3-diazinan-1-yl)phenyl]ethyl}piperazin-1-yl)pyridin-2-yl]amino}pyrimidin-4-yl)-5-fluoro-2-methylphenyl]ethyl}-1,2,4-oxadiazole-5-carboxamide], in experiment [1], the “Mouse Bone Marrow (%) (% remaining BTK, vehicle versus treated)” value is 17%. Further, in experiment [2], the maximal degradation (Dmax) came out at 99.8%.

Consider `C[C@@H](NC(=O)c1nc(C(C)(C)C)no1)c1ccc(-c2cc(Nc3ccc(N4CCN(CCc5ccc(N6CCC(=O)NC6=O)cc5)C[C@@H]4C)cn3)ncn2)cc1Cl` [Example 14, 3-tert-butyl-N-[(1R)-1-{2-chloro-4-[6-({5-[(2S)-4-{2-[4-(2,4-dioxo-1,3-diazinan-1-yl)phenyl]ethyl}-2-methylpiperazin-1-yl]pyridin-2-yl}amino)pyrimidin-4-yl]phenyl}ethyl]-1,2,4-oxadiazole-5-carboxamide], for which the “Mouse Bone Marrow (%) (% remaining BTK, vehicle versus treated)” value in experiment [1] is 16%. The Dmax in experiment [2] is 99.7%.

As to `Cc1cc(-c2cc(Nc3ccc(CCN4CCN(c5ccc(N6CCC(=O)NC6=O)cc5)CC4)cn3)ncn2)ccc1[C@@H](C)NC(=O)c1nc(C(C)(C)C)no1` [Example 19], the “Mouse Bone Marrow (%) (% remaining BTK, vehicle versus treated)” value in experiment [1] is recorded as 51%. The Dmax in experiment [2] turned out to be 100%.

Consider `Cc1cc(-c2cc(Nc3ccc(N4CCN(CCc5ccc(N6CCC(=O)NC6=O)cc5)C[C@@H]4C)cc3)ncn2)ccc1[C@@H](C)NC(=O)c1nc(C(C)(C)C)no1` [Example 18], for which the “Mouse Bone Marrow (%) (% remaining BTK, vehicle versus treated)” value in experiment [1] came out at 25%. Further, the Dmax in experiment [2] came to 99.5%.

In the case of `Cc1cc(-c2cc(Nc3ccc(N4CCN(CCc5ccc(N6CCC(=O)NC6=O)cc5)CC4)cn3)ncn2)ccc1[C@@H](C)NC(=O)c1nc(C(C)(C)C)no1` [Example 3, 3-tert-butyl-N-{(1R)-1-[4-(6-{[5-(4-{2-[4-(2,4-dioxo-1,3-diazinan-1-yl)phenyl]ethyl}piperazin-1-yl)pyridin-2-yl]amino}pyrimidin-4-yl)-2-methylphenyl]ethyl}-1,2,4-oxadiazole-5-carboxamide], in experiment [1], the “Mouse Bone Marrow (%) (% remaining BTK, vehicle versus treated)” value was 22%. In experiment [2], the Dmax was determined as 99.2%.

Take `Cc1cc(-c2cc(Nc3ccc(N4CCN(CCc5ccc(N6CCC(=O)NC6=O)c(F)c5)C[C@@H]4C)cn3)ncn2)ccc1[C@@H](C)NC(=O)c1nc(C(C)(C)C)no1` [Example 4, 3-tert-butyl-N-[(1R)-1-{4-[6-({5-[(2S)-4-{2-[4-(2,4-dioxo-1,3-diazinan-1-yl)-3-fluorophenyl]ethyl}-2-methylpiperazin-1-yl]pyridin-2-yl}amino)pyrimidin-4-yl]-2-methylphenyl}ethyl]-1,2,4-oxadiazole-5-carboxamide]: the “Mouse Bone Marrow (%) (% remaining BTK, vehicle versus treated)” value in experiment [1] stood at 13%. Besides, the Dmax in experiment [2] came to 99.8%.

Consider `CC[C@H]1CN(CCc2ccc(N3CCC(=O)NC3=O)c(F)c2)CCN1c1ccc(Nc2cc(-c3ccc([C@@H](C)NC(=O)c4nc(C(C)(C)C)no4)c(C)c3)ncn2)nc1` [Example 7, 3-tert-butyl-N-[(1R)-1-{4-[6-({5-[(2S)-4-{2-[4-(2,4-dioxo-1,3-diazinan-1-yl)-3-fluorophenyl]ethyl}-2-ethylpiperazin-1-yl]pyridin-2-yl}amino)pyrimidin-4-yl]-2-methylphenyl}ethyl]-1,2,4-oxadiazole-5-carboxamide], for which the “Mouse Bone Marrow (%) (% remaining BTK, vehicle versus treated)” value in experiment [1] turned out to be 22%. Further, the Dmax in experiment [2] turned out to be 99.3%.

Turning to `CC[C@@H]1CN(CCc2ccc(N3CCC(=O)NC3=O)cc2)CCN1c1ccc(Nc2cc(-c3ccc([C@@H](C)NC(=O)c4nc(C(C)(C)C)no4)c(C)c3)ncn2)nc1` [Example 8, 3-tert-butyl-N-[(1R)-1-{4-[6-({5-[(2R)-4-{2-[4-(2,4-dioxo-1,3-diazinan-1-yl)phenyl]ethyl}-2-ethylpiperazin-1-yl]pyridin-2-yl}amino)pyrimidin-4-yl]-2-methylphenyl}ethyl]-1,2,4-oxadiazole-5-carboxamide], the “Mouse Bone Marrow (%) (% remaining BTK, vehicle versus treated)” value in experiment [1] worked out at 30%. In experiment [2], the maximal degradation (Dmax) is 98.6%.

For `Cc1cc(-c2cc(Nc3ccc(N4CCN(CCc5ccc(N6CCC(=O)NC6=O)cc5)C[C@H]4C)cn3)ncn2)ccc1[C@@H](C)NC(=O)c1nc(C(C)(C)C)no1` [Example 2, 3-tert-butyl-N-[(1R)-1-{4-[6-({5-[(2R)-4-{2-[4-(2,4-dioxo-1,3-diazinan-1-yl)phenyl]ethyl}-2-methylpiperazin-1-yl]pyridin-2-yl}amino)pyrimidin-4-yl]-2-methylphenyl}ethyl]-1,2,4-oxadiazole-5-carboxamide], in experiment [1], the “Mouse Bone Marrow (%) (% remaining BTK, vehicle versus treated)” value came to 12%. Also, the Dmax in experiment [2] worked out at 98.8%.

As to `Cc1cc(-c2cc(Nc3ccc(N4CCN(CCc5ccc(N6CCC(=O)NC6=O)cc5)C[C@@H]4C(C)C)cn3)ncn2)ccc1[C@@H](C)NC(=O)c1nc(C(C)(C)C)no1` [Example 13, 3-tert-butyl-N-[(1R)-1-{4-[6-({5-[(2S)-4-{2-[4-(2,4-dioxo-1,3-diazinan-1-yl)phenyl]ethyl}-2-(propan-2-yl)piperazin-1-yl]pyridin-2-yl}amino)pyrimidin-4-yl]-2-methylphenyl}ethyl]-1,2,4-oxadiazole-5-carboxamide], in experiment [1], the “Mouse Bone Marrow (%) (% remaining BTK, vehicle versus treated)” value was 26%. Besides, in experiment [2], the greatest degradation seen (Dmax) stood at 99%.

The record behind these values is US12172992B2, “Pyrimidines for degrading Bruton's tyrosine kinase” (AbbVie Inc., priority 2022, dated 2024).
